Assay results as given in the supplement of paper PMC10011410.
± gives the standard deviation of the averaged measurements.

Legend:
U-2 OS [1] = test: total intracellular glutathione (GSH + GSSG) relative to DMSO (% of control); higher = more glutathione; settings: 24 h
Experimental: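 Total intracellular glutathione (GSH + GSSG) in U-2 OS cells by GSH/GSSG-Glo after 24 h compound treatment at 5, 10 and 20 uM (some at 40 and 80 uM), as percent of DMSO control. Five technical replicate plates, averaged.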

U-2 OS [2] = test: relative cell count vs DMSO (cell painting) (fraction of DMSO control); higher = more cells remaining (less cytotoxic); settings: 24 h
Summary of the method: (§1)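 Cell painting used U-2 OS cells at about 1,500 per well in 384-well plates, treated by pin tool for 24 h at 37 °C, usually at six 2-fold concentrations from 20 μM to 625 nM. Cells were stained with MitoTracker, concanavalin A, phalloidin, wheat germ agglutinin, Hoechst and SYTO 14 and imaged on an Opera Phenix. Features were extracted with CellProfiler and normalized to DMSO cells on the same plate. The activity score is the Mahalanobis distance from DMSO wells; cell count is relative to DMSO wells. Values are means of four replicate plates.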

U-2 OS [3] = test: cell painting activity score (Mahalanobis distance from DMSO wells); higher = stronger morphological phenotype; settings: 24 h
Summary of the method: as §1

U-2 OS [4] = test: cell viability (CellTiter-Glo) relative to DMSO (% of control); higher = more viable; settings: 24 h
Experimental: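 Cell viability of U-2 OS cells by CellTiter-Glo after 24 h compound treatment at 5, 10 and 20 uM (some at 40 and 80 uM), measured in parallel with the glutathione assay, as percent of DMSO control. Five technical replicate plates, averaged.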

U-2 OS [5] = test: AUC of culture confluence over time (live-cell imaging) (AUC (confluence % x time)); higher = more confluent culture (less growth inhibition)
Summary of the method: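 Confluence of U-2 OS cells in F-12K medium with 10% FBS was tracked by live-cell imaging. Cells were seeded at 750 per well in 384-well plates and treated 24 h later by pin tool, with most compounds at 20, 10 and 5 μM and 0.2% DMSO. Cells were kept at 37 °C and imaged every 4 h for up to 60 h on an Incucyte S3 with a 10x objective. The value is the area under the confluence-versus-time curve.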

U-2 OS [6] = test: intracellular GSH:GSSG ratio (calculated); higher = more reduced glutathione pool; settings: 24 h
Experimental: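 Intracellular glutathione in U-2 OS cells after 24 h compound treatment at 5, 10 and 20 uM (some at 40 and 80 uM). Total glutathione and GSSG were measured with the GSH/GSSG-Glo kit, and the GSH:GSSG ratio was calculated. Mean of five technical replicate plates.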

Structure (SMILES) | total intracellular glutathione (U-2 OS [1]; 5 µM) | total intracellular glutathione (U-2 OS [1]; 10 µM) | total intracellular glutathione (U-2 OS [1]; 20 µM) | relative cell count (U-2 OS [2]; 0.625 µM) | relative cell count (U-2 OS [2]; 1.25 µM) | relative cell count (U-2 OS [2]; 2.5 µM) | relative cell count (U-2 OS [2]; 5 µM) | relative cell count (U-2 OS [2]; 10 µM) | relative cell count (U-2 OS [2]; 20 µM) | cell painting activity score (U-2 OS [3]; 0.625 µM) | cell painting activity score (U-2 OS [3]; 1.25 µM) | cell painting activity score (U-2 OS [3]; 2.5 µM) | cell painting activity score (U-2 OS [3]; 5 µM) | cell painting activity score (U-2 OS [3]; 10 µM) | cell painting activity score (U-2 OS [3]; 20 µM) | cell viability (U-2 OS [4]; 5 µM) | cell viability (U-2 OS [4]; 10 µM) | cell viability (U-2 OS [4]; 20 µM) | AUC of culture confluence over time (U-2 OS [5]; 5 µM) | AUC of culture confluence over time (U-2 OS [5]; 10 µM) | AUC of culture confluence over time (U-2 OS [5]; 20 µM) | intracellular GSH:GSSG ratio (U-2 OS [6]; 5 µM) | intracellular GSH:GSSG ratio (U-2 OS [6]; 10 µM) | intracellular GSH:GSSG ratio (U-2 OS [6]; 20 µM) | total intracellular glutathione (U-2 OS [1]; 40 µM) | total intracellular glutathione (U-2 OS [1]; 80 µM) | cell viability (U-2 OS [4]; 40 µM) | cell viability (U-2 OS [4]; 80 µM) | intracellular GSH:GSSG ratio (U-2 OS [6]; 40 µM) | intracellular GSH:GSSG ratio (U-2 OS [6]; 80 µM)
O=C(Nc1nc(-c2ccccc2)ns1)c1cccs1 | 99.8 ± 3.8 | 98.1 ± 5.4 | 103 ± 7.2 | 0.94 | 0.902 | 0.915 | 0.929 | 0.917 | 0.914 | 4.56 | 4.47 | 2.86 | 3.95 | 3.58 | 4.52 | 95.9 ± 3.4 | 93.5 ± 3.8 | 97.5 ± 1.8 | 42.6 | 48.1 | 43.5 | 16.9 | 13 | 23.8 |  |  |  |  |  | 
O=[N+]([O-])c1c(Cl)cc(Cl)c2nsnc12 | 116 ± 6.5 | 81.7 ± 6 | 48.7 ± 3.5 | 0.967 | 0.626 | 0.447 | 0.222 | 0.02 | 0.0161 | 5.1 | 10.7 | 14.1 | 17.8 | 25.1 | 24.4 | 88.3 ± 13 | 52.4 ± 10 | 19.5 ± 8.6 | 19.8 | 10.2 | 8 | 13.9 | 6.83 | 2.56 |  |  |  |  |  | 
COc1ccc(/C(Cl)=C(\C=O)c2ccc(OC)cc2)cc1 | 125 ± 6.9 | 125 ± 4.8 | 111 ± 2.4 | 1 | 0.996 | 1.01 | 0.987 | 0.98 | 0.996 | 6.88 | 4.52 | 5.61 | 10.1 | 11.3 | 12 | 101 ± 3.7 | 102 ± 3.2 | 99.8 ± 6.2 | 45.3 | 38.1 | 35.7 | 20.2 | 16.5 | 15.7 | 76.7 ± 2.6 | 79.8 ± 4.3 | 77.1 ± 5 | 69.9 ± 4.5 | 7.85 | 9.31
CCCC1(c2ccccc2)NC(=O)N(CC(=O)N(C)Cc2c(F)cccc2Cl)C1=O (configuration not stated) | 102 ± 4.9 | 104 ± 2.5 | 101 ± 3.9 | 1.02 | 0.978 | 1.04 | 1.03 | 0.991 | 1.04 | 4.41 | 4.87 | 5.72 | 6.63 | 7.72 | 8.18 | 101 ± 3.2 | 102 ± 2.8 | 100 ± 2.9 | 53.9 | 48.4 | 48.7 | 20.7 | 26.8 | 22.5 |  |  |  |  |  | 
